In the supplement of paper PMC6045584:
± gives the standard deviation of the averaged measurements.

Experiments:
SNX-5422 [1] = compound: T1, CC1(C)CC(=O)c2c(C(F)(F)F)nn(-c3ccc(C(N)=O)c(N[C@H]4CC[C@H](OC(=O)CN)CC4)c3)c2C1 [SNX-5422]; assay: surviving fraction relative to DMSO-only wells; higher = less growth inhibition; conditions: exposure time: 5 days
Summary of the method: (§1)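 After seeding at 250–500 cells per well in 384-well plates and a 24-hour wait, log-phase tumour cell lines were exposed without interruption for five days to inhibitors at 0.5, 1, 5, 10, 50, 100, 500 and 1000 nM. CellTiter-Glo luminescence was recorded after 10 minutes at room temperature. Viability is reported as surviving fraction, the luminescence normalised to the median of DMSO-only wells.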

BI-2536 [2] = compound: T2, CC[C@@H]1C(=O)N(C)c2cnc(Nc3ccc(C(=O)NC4CCN(C)CC4)cc3OC)nc2N1C1CCCC1 [BI-2536]; assay: as above; conditions: exposure time: 5 days
Summary of the method: as §1

TIOGUANINE = compound: Nc1nc2[nH]cnc2c(=S)[nH]1 [TIOGUANINE]; assay: as above; conditions: exposure time: 5 days
Summary of the method: as §1

[3] = compound: Cn1cc(C2=Nc3cc(NC(=O)C(N)C4CCCCC4)cc4c3C2=CNNC4=O)cn1; assay: as above; conditions: exposure time: 5 days
Summary of the method: as §1

CANERTINIB [4] = compound: T3, C=CC(=O)Nc1cc2c(Nc3ccc(F)c(Cl)c3)ncnc2cc1OCCCN1CCOCC1 [CANERTINIB]; assay: as above; conditions: exposure time: 5 days
Summary of the method: as §1

AFATINIB [5] = compound: T4, CN(C)C/C=C/C(=O)Nc1cc2c(Nc3ccc(F)c(Cl)c3)ncnc2cc1O[C@H]1CCOC1 [AFATINIB]; assay: as above; conditions: exposure time: 5 days
Summary of the method: as §1

SAPACITABINE [6] = compound: T5, CCCCCCCCCCCCCCCC(=O)Nc1ccn([C@@H]2O[C@H](CO)[C@@H](O)[C@@H]2C#N)c(=O)n1 [SAPACITABINE]; assay: as above; conditions: exposure time: 5 days
Summary of the method: as §1

MDV3100 [7] = compound: T6, CNC(=O)c1ccc(N2C(=S)N(c3ccc(C#N)c(C(F)(F)F)c3)C(=O)C2(C)C)cc1F [MDV3100]; assay: as above; conditions: exposure time: 5 days
Summary of the method: as §1

SNX-5422 [8] = compound: T1, SNX-5422; assay: area under dose-response curve of surviving fraction (unscaled, Aref=0) (surviving fraction x log10(nM)); higher = more resistant; conditions: exposure time: 5 days; dose range 0.5-1000 nM
Summary of the method: (§2)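 Tumour cell lines in 384-well plates were exposed for five days to eight inhibitor concentrations from 0.5 to 1000 nM. Viability was read by CellTiter-Glo luminescence, normalised to DMSO-only wells, in three screens per line. Dose-response survival curves were fitted to surviving fractions by 3-parameter logistic regression in the drc R package. Area under the curve is the unscaled activity area (Aref = 0) over log10 dose.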

BI-2536 [9] = compound: T2, BI-2536; assay: as above; conditions: exposure time: 5 days; dose range 0.5-1000 nM
Summary of the method: as §2

[10] = compound: Cn1cc(C2=Nc3cc(NC(=O)C(N)C4CCCCC4)cc4c3C2=CNNC4=O)cn1; assay: as above; conditions: exposure time: 5 days; dose range 0.5-1000 nM
Summary of the method: as §2

CANERTINIB [11] = compound: T3, CANERTINIB; assay: as above; conditions: exposure time: 5 days; dose range 0.5-1000 nM
Summary of the method: as §2

AFATINIB [12] = compound: T4, AFATINIB; assay: as above; conditions: exposure time: 5 days; dose range 0.5-1000 nM
Summary of the method: as §2

SAPACITABINE [13] = compound: T5, SAPACITABINE; assay: as above; conditions: exposure time: 5 days; dose range 0.5-1000 nM
Summary of the method: as §2

MDV3100 [14] = compound: T6, MDV3100; assay: as above; conditions: exposure time: 5 days; dose range 0.5-1000 nM
Summary of the method: as §2

SG31 HEADNECK
surviving fraction (SNX-5422 [1]; 0.5 nM): 1.03 ± 0.12
surviving fraction (SNX-5422 [1]; 1 nM): 1.09 ± 0.22
surviving fraction (SNX-5422 [1]; 5 nM): 1.05 ± 0.096
surviving fraction (SNX-5422 [1]; 10 nM): 0.876 ± 0.14
surviving fraction (SNX-5422 [1]; 50 nM): 0.61 ± 0.024
surviving fraction (SNX-5422 [1]; 100 nM): 0.187 ± 0.029
surviving fraction (SNX-5422 [1]; 500 nM): 0.0373 ± 0.0076
surviving fraction (SNX-5422 [1]; 1000 nM): 0.0403 ± 0.006
surviving fraction (BI-2536 [2]; 0.5 nM): 1.09 ± 0.11
surviving fraction (BI-2536 [2]; 1 nM): 1.27 ± 0.057
surviving fraction (BI-2536 [2]; 5 nM): 0.77 ± 0.099
surviving fraction (BI-2536 [2]; 10 nM): 0.603 ± 0.03
surviving fraction (BI-2536 [2]; 50 nM): 0.531 ± 0.031
surviving fraction (BI-2536 [2]; 100 nM): 0.573 ± 0.029
surviving fraction (BI-2536 [2]; 500 nM): 0.49 ± 0.034
surviving fraction (BI-2536 [2]; 1000 nM): 0.438 ± 0.064
surviving fraction (TIOGUANINE; 0.5 nM): 0.97 ± 0.023
surviving fraction (TIOGUANINE; 1 nM): 1 ± 0.085
surviving fraction (TIOGUANINE; 5 nM): 1 ± 0.16
surviving fraction (TIOGUANINE; 10 nM): 1.01 ± 0.18
surviving fraction (TIOGUANINE; 50 nM): 0.986 ± 0.073
surviving fraction (TIOGUANINE; 100 nM): 0.871 ± 0.1
surviving fraction (TIOGUANINE; 500 nM): 1.2 ± 0.25
surviving fraction (TIOGUANINE; 1000 nM): 0.928 ± 0.17
surviving fraction ([3]; 0.5 nM): 1.01 ± 0.076
surviving fraction ([3]; 1 nM): 1.06 ± 0.18
surviving fraction ([3]; 5 nM): 0.908 ± 0.1
surviving fraction ([3]; 10 nM): 0.901 ± 0.11
surviving fraction ([3]; 50 nM): 0.881 ± 0.11
surviving fraction ([3]; 100 nM): 0.825 ± 0.02
surviving fraction ([3]; 500 nM): 0.79 ± 0.021
surviving fraction ([3]; 1000 nM): 0.669 ± 0.052
surviving fraction (CANERTINIB [4]; 0.5 nM): 0.935 ± 0.084
surviving fraction (CANERTINIB [4]; 1 nM): 0.907 ± 0.035
surviving fraction (CANERTINIB [4]; 5 nM): 0.811 ± 0.043
surviving fraction (CANERTINIB [4]; 10 nM): 0.688 ± 0.15
surviving fraction (CANERTINIB [4]; 50 nM): 0.63 ± 0.12
surviving fraction (CANERTINIB [4]; 100 nM): 0.581 ± 0.086
surviving fraction (CANERTINIB [4]; 500 nM): 0.588 ± 0.045
surviving fraction (CANERTINIB [4]; 1000 nM): 0.498 ± 0.1
surviving fraction (AFATINIB [5]; 0.5 nM): 0.967 ± 0.1
surviving fraction (AFATINIB [5]; 1 nM): 0.947 ± 0.046
surviving fraction (AFATINIB [5]; 5 nM): 0.62 ± 0.11
surviving fraction (AFATINIB [5]; 10 nM): 0.615 ± 0.18
surviving fraction (AFATINIB [5]; 50 nM): 0.515 ± 0.12
surviving fraction (AFATINIB [5]; 100 nM): 0.471 ± 0.13
surviving fraction (AFATINIB [5]; 500 nM): 0.528 ± 0.035
surviving fraction (AFATINIB [5]; 1000 nM): 0.452 ± 0.054
surviving fraction (SAPACITABINE [6]; 0.5 nM): 0.933 ± 0.053
surviving fraction (SAPACITABINE [6]; 1 nM): 0.946 ± 0.043
surviving fraction (SAPACITABINE [6]; 5 nM): 0.814 ± 0.079
surviving fraction (SAPACITABINE [6]; 10 nM): 0.464 ± 0.015
surviving fraction (SAPACITABINE [6]; 50 nM): 0.919 ± 0.071
surviving fraction (SAPACITABINE [6]; 100 nM): 0.947 ± 0.16
surviving fraction (SAPACITABINE [6]; 500 nM): 0.792 ± 0.072
surviving fraction (SAPACITABINE [6]; 1000 nM): 0.642 ± 0.033
surviving fraction (MDV3100 [7]; 0.5 nM): 0.928 ± 0.059
surviving fraction (MDV3100 [7]; 1 nM): 1.06 ± 0.037
surviving fraction (MDV3100 [7]; 5 nM): 1.01 ± 0.14
surviving fraction (MDV3100 [7]; 10 nM): 1.02 ± 0.14
surviving fraction (MDV3100 [7]; 50 nM): 1.07 ± 0.057
surviving fraction (MDV3100 [7]; 100 nM): 0.969 ± 0.17
surviving fraction (MDV3100 [7]; 500 nM): 1.18 ± 0.18
surviving fraction (MDV3100 [7]; 1000 nM): 1.06 ± 0.028
area under dose-response curve (SNX-5422 [8]): 2.1
area under dose-response curve (BI-2536 [9]): 2.2
area under dose-response curve [10]: 2.91
area under dose-response curve (CANERTINIB [11]): 2.3
area under dose-response curve (AFATINIB [12]): 2.04
area under dose-response curve (SAPACITABINE [13]): 2.62
area under dose-response curve (MDV3100 [14]): 3.39
